Assay results reported in paper PMC5622733, “Polymethoxyflavones: Novel β-Secretase (BACE1) Inhibitors from Citrus Peels” (Nutrients, 2017).

Assays:
[1] = system: inducible nitric oxide synthase (iNOS), cyclooxygenase-2 (COX-2); conditions: cited from earlier work
[2] = system: ERK and CREB signaling pathways; conditions: cited from earlier work
[3] = cited from earlier work
[4] = system: olfactory bulbectomy-induced memory impairment; conditions: administration for 11 days; cited from earlier work
Elastase = target: T1, Elastase (Sus scrofa, UniProt P00772); experiment: Elastase assay; format: biochemical; conditions: read-out: Inhibitory activity (%) against Elastase
T1 construct: purchased Sigma-Aldrich (St. Louis, MO, USA)
T1 sequence (P00772 27-266): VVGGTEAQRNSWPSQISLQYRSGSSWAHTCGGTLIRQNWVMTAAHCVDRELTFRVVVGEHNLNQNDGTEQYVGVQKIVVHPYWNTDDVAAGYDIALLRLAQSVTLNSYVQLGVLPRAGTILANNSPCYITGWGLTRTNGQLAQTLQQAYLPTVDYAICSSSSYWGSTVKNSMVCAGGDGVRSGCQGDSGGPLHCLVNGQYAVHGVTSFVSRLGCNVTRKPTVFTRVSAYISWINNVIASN
Description: (§1) BACE1 inhibition was determined by enzymatic assay using the fluorescent resonance energy transfer (FRET)-based BACE1 kit from Invitrogen (Pan Vera, Madison, WI, USA). α-Secretase (tumor necrosis factor-α converting enzyme, TACE) and substrate were obtained from R&D Systems (Minneapolis, MN, USA). Trypsin, chymotrypsin, elastase, and their substrates were obtained from Sigma-Aldrich (St. Louis, MO, USA). The measurement of fluorescence and optical density was performed with a BioTEK ELISA microplate fluorescence reader FLx 800 and BioTEK ELx 808 (Winooski, VT, USA), respectively.
(§2) BACE1, TACE, chymotrypsin, trypsin and elastase assays were performed according to previous methods. Fluorometric BACE1 and TACE assay were measured using a Rh-[…]-Quencher and Mca-PLAQAV-Dpa-RSSSR-NH2 as substrates. Trypsin, chymotrypsin, and elastase were assayed according to the manual described in the reference using N-benzoyl-L-Arg-pNA, N-benzoyl-L-Tyr-pNA, and N-succinyl-Ala-Ala-Ala-pNA as substrates, respectively.

Trypsin = Trypsin assay; format: biochemical
Description: as §1, §2

P-glycoprotein (P-gp) = system: P-glycoprotein (P-gp); design: method as in PMID 11098080, PMID 17348674; conditions: adriamycin-resistant human myelogenous leukemia cells and Caco-2 cells, talinolol as probe; cited from earlier work
[5] = target: T2, α-secretase (tumor necrosis factor-α converting enzyme, TACE) (Homo sapiens, UniProt P78536); experiment: TACE (α-secretase) fluorometric assay; format: biochemical; conditions: read-out: Inhibitory activity (%) against TACE
T2 construct: purchased R&D Systems (Minneapolis, MN, USA)
T2 sequence (P78536 215-824): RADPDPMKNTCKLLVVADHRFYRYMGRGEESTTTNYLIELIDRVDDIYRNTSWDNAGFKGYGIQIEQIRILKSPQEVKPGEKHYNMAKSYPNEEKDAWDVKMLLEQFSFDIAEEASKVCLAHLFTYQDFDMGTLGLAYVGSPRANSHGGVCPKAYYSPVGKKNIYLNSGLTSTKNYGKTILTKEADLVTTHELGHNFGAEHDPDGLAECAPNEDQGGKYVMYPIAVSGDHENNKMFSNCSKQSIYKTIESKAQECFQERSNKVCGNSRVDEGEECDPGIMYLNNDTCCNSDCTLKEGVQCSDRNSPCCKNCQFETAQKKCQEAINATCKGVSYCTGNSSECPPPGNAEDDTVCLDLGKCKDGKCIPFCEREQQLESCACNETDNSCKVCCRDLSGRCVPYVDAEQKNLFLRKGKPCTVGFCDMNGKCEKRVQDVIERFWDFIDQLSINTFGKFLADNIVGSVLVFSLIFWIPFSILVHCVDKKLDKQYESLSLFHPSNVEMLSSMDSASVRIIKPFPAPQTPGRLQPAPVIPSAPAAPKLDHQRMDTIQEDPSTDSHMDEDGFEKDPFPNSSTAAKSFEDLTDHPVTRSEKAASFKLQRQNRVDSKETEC
Description: as §1, §2

APP-SL 7-5 Tg mice = conditions: daily from 4 to 9 months of age; cited from earlier work
BACE1 [6] = target: T3, BACE1 (Homo sapiens, UniProt P56817); experiment: BACE1 inhibition kinetics (Dixon and Lineweaver–Burk plots); format: biochemical; conditions: for Type of inhibition: Dixon and Lineweaver–Burk plots; for Ki: substrate 250-750 nM, read-out: Ki calculated from the Dixon plots
T3 construct: purchased Invitrogen (Pan Vera, Madison, WI, USA)
T3 sequence (P56817 46-501): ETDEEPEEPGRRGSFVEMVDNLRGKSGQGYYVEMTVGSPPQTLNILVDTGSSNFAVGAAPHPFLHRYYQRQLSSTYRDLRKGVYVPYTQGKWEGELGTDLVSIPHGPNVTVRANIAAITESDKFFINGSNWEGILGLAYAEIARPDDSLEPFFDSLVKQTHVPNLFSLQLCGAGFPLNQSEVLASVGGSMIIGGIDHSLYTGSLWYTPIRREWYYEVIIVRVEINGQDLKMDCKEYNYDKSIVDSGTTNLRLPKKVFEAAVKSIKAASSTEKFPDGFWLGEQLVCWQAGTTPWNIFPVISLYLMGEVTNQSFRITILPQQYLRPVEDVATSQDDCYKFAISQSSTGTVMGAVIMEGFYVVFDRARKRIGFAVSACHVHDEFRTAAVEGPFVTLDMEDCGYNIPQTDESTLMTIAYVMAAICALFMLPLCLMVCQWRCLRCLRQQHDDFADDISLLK
Description: The kinetic mechanisms of the different samples towards BACE1 were determined by the graphical views of Dixon and Lineweaver–Burk plots. The inhibitory constants (Ki) value was defined by interpretation of the Dixon plot, where the value of the x-axis implies -Ki. […] The kinetic parameters were then calculated using Enzyme Kinetic^TM module of SigmaPlot^TM version 12.3 (Systat Software, Inc., San Jose, CA, USA).

3XTg-AD mice = conditions: cited from earlier work
Chymotrypsin = target: T4, Chymotrypsin (Bos taurus, UniProt P00766); experiment: Chymotrypsin assay; format: biochemical; conditions: read-out: Inhibitory activity (%) against Chymotrypsin
T4 construct: purchased Sigma-Aldrich (St. Louis, MO, USA)
Description: as §1, §2

[7] = cited from earlier work; remark: listed apart in the source
BACE1 [8] = target: T3, BACE1; experiment: FRET-based BACE1 inhibition assay; format: biochemical; conditions: FRET substrate Rh-[…]-Quencher
Description: as §1, §2

[9] = system: cyclic AMP response element-mediated transcription; design: method as in PMID 23588349; conditions: rat hippocampal neurons; cited from earlier work
[10] = chronic oral administration; cited from earlier work
6-OHDA-lesioned rats = conditions: 20 mg/kg/day for 4 days before 6-OHDA injection; cited from earlier work
[11] = rats, up to 1000 to 3000 mg/kg bw; cited from earlier work
[12] = system: primary rat microglia and BV-2 microglial cell; conditions: LPS-induced; cited from earlier work

**Q.** For COc1c(OC)c(OC)c2c(=O)cc(-c3ccc(O)c(O)c3)oc2c1OC [3′,4′-di-DMN], which “Suppression of gene expression of iNOS and COX-2 relative to parent compound” value [1] is on record?
**A.** The value was “more efficiently suppressed”.

**Q.** With COc1ccc(-c2cc(=O)c3c(OC)c(OC)c(OC)c(OC)c3o2)cc1O [3′-DMN] as the molecule, how does the “iNOS inhibition relative to nobiletin” value [1] read?
**A.** Its value is “more efficiently than nobiletin”.

**Q.** What does the source list for COc1cc(-c2cc(=O)c3c(OC)c(OC)c(OC)c(OC)c3o2)ccc1O [4′-DMN]?
**A.** Phosphorylation of ERK and CREB [2]: stimulate phosphorylation; Suppression of gene expression of iNOS and COX-2 relative to parent compound [1]: more efficiently suppressed; Ability to cross the blood–brain barrier (BBB) [3]: able to cross the blood–brain barrier (BBB)

**Q.** With COc1ccc(-c2cc(=O)c3c(OC)c(OC)c(OC)c(OC)c3o2)cc1OC [Nobiletin, 5,6,7,8,3′,4′-hexamethoxyflavone] as the molecule, how does the Memory impairment [4] read?
**A.** The Memory impairment was “significantly recovered”.

**Q.** And the inhibition at 50 µM (Elastase)?
**A.** The inhibition at 50 µM was 5.51 ± 1.17%.

**Q.** And the inhibition at 100 µM (Elastase)?
**A.** Its inhibition at 100 µM is 4.49 ± 1%.

**Q.** And the “Inhibitory activity (%) against Trypsin” value (Trypsin; 50 μM)?
**A.** Its value is 1.00 ± 0.07%.

**Q.** What about the “Inhibitory activity (%) against Trypsin” value (Trypsin; 100 μM) of the same molecule?
**A.** The value was 0.92 ± 0.06%.

**Q.** And the P-gp inhibition (P-glycoprotein (P-gp))?
**A.** Its P-gp inhibition is “inhibitory potential with P-gp”.

**Q.** What about the inhibition at 50 µM [5] of the same molecule?
**A.** The inhibition at 50 µM was 5.49 ± 0.34%.

**Q.** And the inhibition at 100 µM [5]?
**A.** The inhibition at 100 µM was 11.6 ± 3.07%.

**Q.** And the “Aβ1-42 and Aβ1-40 in the brain” value (APP-SL 7-5 Tg mice)?
**A.** The value was “reduced quantity”.

**Q.** And the “Memory impairment, context-dependent fear conditioning test” value (APP-SL 7-5 Tg mice)?
**A.** The value was “significantly reversed memory impairment”.

**Q.** What about the Type of inhibition (BACE1 [6]) of the same molecule?
**A.** Its Type of inhibition is “noncompetitive”.

**Q.** What about the Ki (BACE1 [6]) of the same molecule?
**A.** Its Ki is 34 µM.

**Q.** And the “Soluble Aβ1-40 and ROS levels in brain and hippocampus” value (3XTg-AD mice)?
**A.** The value was “reduced the levels”.

**Q.** What about the inhibition at 50 µM (Chymotrypsin) of the same molecule?
**A.** The inhibition at 50 µM was 1.39 ± 0.17%.

**Q.** What about the inhibition at 100 µM (Chymotrypsin) of the same molecule?
**A.** The inhibition at 100 µM was 1.77 ± 0.06%.

**Q.** And the “Content in the brain” value ([7]; mice, oral 50 mg/kg)?
**A.** Its value is 3.6 mg/kg.

**Q.** What about the “Content in the brain (molar)” value ([7]; mice, oral 50 mg/kg) of the same molecule?
**A.** Its value is “approximately 8.9 µM”.

**Q.** And the “Accumulation in the brain versus liver” value ([7]; oral administration)?
**A.** Its value is “much higher than that in the liver”.

**Q.** What about the IC50 (BACE1 [8]) of the same molecule?
**A.** The IC50 was 59 µM.

**Q.** Which results are given for COc1ccc(-c2cc(=O)c3c(OC)c(OC)c(OC)cc3o2)cc1OC [Sinensetin, 5,6,7,3′,4′-pentamethoxyflavone]?
**A.** inhibition at 50 µM (Elastase): 7.4 ± 2.09%; inhibition at 100 µM (Elastase): 11.4 ± 1.38%; Inhibitory activity (%) against Trypsin (Trypsin; 50 μM): 5.16 ± 0.69%; Inhibitory activity (%) against Trypsin (Trypsin; 100 μM): 4.70 ± 0.58%; inhibition at 50 µM [5]: 7.88 ± 1.12%; inhibition at 100 µM [5]: 7.19 ± 1.35%; Type of inhibition (BACE1 [6]): noncompetitive; Ki (BACE1 [6]): 38 µM; CRE-mediated transcription [9]: activate; inhibition at 50 µM (Chymotrypsin): 9.08 ± 0.48%; inhibition at 100 µM (Chymotrypsin): 8.78 ± 0.8%; IC50 (BACE1 [8]): 63 µM

**Q.** With COc1ccc(-c2cc(=O)c3c(OC)c(OC)c(OC)c(OC)c3o2)cc1 [Tangeretin, 5,6,7,8,4′-pentamethoxyflavo-ne] as the molecule, how does the inhibition at 50 µM (Elastase) read?
**A.** Its inhibition at 50 µM is 8.64 ± 0.65%.

**Q.** What about the inhibition at 100 µM (Elastase) of the same molecule?
**A.** The inhibition at 100 µM was 10.6 ± 1.09%.

**Q.** And the “Inhibitory activity (%) against Trypsin” value (Trypsin; 50 μM)?
**A.** Its value is 8.10 ± 0.99%.

**Q.** And the “Inhibitory activity (%) against Trypsin” value (Trypsin; 100 μM)?
**A.** The value was 11.80 ± 1.04%.

**Q.** What about the P-gp inhibition (P-glycoprotein (P-gp)) of the same molecule?
**A.** The P-gp inhibition was “inhibitory potential with P-gp”.

**Q.** And the inhibition at 50 µM [5]?
**A.** The inhibition at 50 µM was 8 ± 1%.

**Q.** And the inhibition at 100 µM [5]?
**A.** The inhibition at 100 µM was 11.3 ± 1.66%.

**Q.** What about the “Detection in the hippocampus” value [10] of the same molecule?
**A.** The value was “detected in the hippocampus”.

**Q.** And the Type of inhibition (BACE1 [6])?
**A.** Its Type of inhibition is “noncompetitive”.

**Q.** What about the Ki (BACE1 [6]) of the same molecule?
**A.** Its Ki is 37 µM.

**Q.** What about the “Loss of TH+ cells and striatal dopamine content” value (6-OHDA-lesioned rats) of the same molecule?
**A.** The value was “markedly reduced the loss”.

**Q.** And the inhibition at 50 µM (Chymotrypsin)?
**A.** The inhibition at 50 µM was 5.68 ± 0.86%.

**Q.** What about the inhibition at 100 µM (Chymotrypsin) of the same molecule?
**A.** The inhibition at 100 µM was 6.16 ± 0.38%.

**Q.** And the “Death and clinical chemistry in oral acute and sub-acute study” value [11]?
**A.** Its value is “no evidence of death nor significant change of clinical chemistry”.

**Q.** And the IC50 (BACE1 [8])?
**A.** Its IC50 is 49 µM.

**Q.** What about the Microglial cell activation [12] of the same molecule?
**A.** The Microglial cell activation was “suppressed”.
